What was measured:
[1] = Serum concentration of fispemifene in monkeys after administration in two different vehicles; type: in vivo; details: two female Cynomolgus monkeys, single oral dose 500 mg/kg, LC-MS/MS
Protocol: Serum concentration of fispemifene in monkeys after administration of fispemifene in two different vehicles
A pilot study on exposure of fispemifene in two female Cynomolgus monkeys ( #05084 and #06170) was carried out. Fispemifene was administered by single oral dosing of 500 mg/kg in two different vehicles, 0.5% carboxymethyl cellulose in water (CMC), and in corn oil. Blood samples were collected 0, 1, 2, 4, 6, 8, 12, 16 and 24 hours after dosing. Concentrations of fispemifene were determined using LC-MS/MS.

Solubility in water = type: physicochemical

fispemifene quantifiable in serum samples after drug administration ([1]; CMC or corn oil vehicle, samples 1-24 h): quantifiable in all serum samples
serum fispemifene concentration, corn oil vehicle relative to 0.5% CMC in aqueous solution ([1]; corn oil vs 0.5% carboxymethyl cellulose in water, 0-24 h): more than 10 fold
solubility in water (Solubility in water): only sparingly soluble
Compound: OCCOCCOc1ccc(/C(=C(/CCCl)c2ccccc2)c2ccccc2)cc1 [Fispemifene, (Z)-2-{2-[4-(4-chloro-1,2-diphenylbut-1-enyl)phenoxy]ethoxy}ethanol]
